Reference: patent publication US20120165230A1, “BIOLOGICALLY PRODUCED CYCLIC AFFINITY TAGS” (LanthioPep B.V., priority 2009, published 2012)

System: L. lactis MG1363
Assay: Antimicrobial activity: growth inhibition in two-fold dilution series in microwell plate, OD600 after 6 hours
Type: cell-based, Lactococcus lactis
Settings: supernatant treated with trypsin to cleave off leader, two-fold dilutions
Procedure: FIG. 2. Antimicrobial activity of a truncated nisin mutant containing HPQF (SEQ ID NO:7) in ring C. Lactococcus lactis containing a first plasmid encoding NisB, NisT and NisC and a second plasmid encoding […] (SEQ ID NO:44) was induced. The supernatant was treated with trypsin to cleave off the leader peptide. Series of two-fold dilutions were made in a microwell plate and the peptide's capacity to inhibit the growth of L. lactis MG1363 was tested by measuring OD 600 after six hours of incubation. ∘: control with PBS, ▪: truncated nisin mutant, ▾: supernatant of nisin A-producing L. lactis NZ9700.
The leader was cleaved off with trypsin and the antimicrobial activity was measured as follows: In a microwell plate, 200 μl of supernatant of nisin fusion strain and in other wells, 200 μl of control (positive, e.g., filtered sup of NZ9700 and negative) solutions was added to the wells of the first column. 100 μl medium was added to the remaining empty wells. For each row, 100 μl from the first column was added to the second and, after mixing, from the second to the third, etc., leading to two-fold dilution steps. 100 μl of sensitive strain. MG1363 was added to all wells at low density, OD600: 0.05-0.1. After 6 hours, OD600 was measured.

“ITSISLCTPGCKTHPQFCNMKEQKLISEED [H14, P15, Q16, F17, ΔG18 mutant of nisin (1-22) with internal strep-tag, coupled to external myc-tag EQKLISEED]” was tested, and the “antimicrobial activity (inhibition of growth of L. lactis MG1363)” value (FIG. 2) was “clearly has antimicrobial activity” and the “antimicrobial activity (inhibition of growth of L. lactis MG1363)” value (FIG. 2, listed as truncated nisin mutant) was “still has activity”.
